Measurements reported in US9476099B2 (TRUSTEES OF DARTMOUTH COLLEGE, priority 2012, dated 2016).

System: gene promoters in NT2/D1-R1 control and DNMT3B knockdown cells
Test: Genome-wide promoter methylation analysis, HumanMethylation27 BeadChip (Table 15)
Type: cell-based, human
Details: sh-3b + 5aza
Experimental: DNA methylation analysis was performed in samples in triplicate using the […] […] assay with the HumanMethylation27 BeadChip ([…]) and the BeadChip was scanned on the BeadArray Reader ([…]), according to the manufacturer's instructions. Raw data was normalized and analyzed with Genome Studio software ([…]). The HumanMethylation27 BeadChip assays 27,578 CpGs covering more than 14,000 genes, mostly from promoter regions. […] Hierarchical clustering was performed as stated above. HumanMethylation27 BeadChip data and gene expression microarray data were submitted to NCBI GEO.

## Nc1ncn([C@H]2C[C@H](O)[C@@H](CO)O2)c(=O)n1 [5aza]
  ABCC1 cg20158248 promoter methylation Mean: 0.458
  ACP1 cg27226618 promoter methylation Mean: 0.490
  ADCY4 cg16761581 promoter methylation Mean: 0.297
  ADRA2A cg26926521 promoter methylation Mean: 0.682
  ALDH1A3 cg19224278 promoter methylation Mean: 0.310
  ALKBH4 cg07404418 promoter methylation Mean: 0.312
  ALX4 cg04549333 promoter methylation Mean: 0.880
  ALX4 cg04970352 promoter methylation Mean: 0.645
  ALX4 cg19358442 promoter methylation Mean: 0.834
  ANKRD13C cg19342782 promoter methylation Mean: 0.372
  ANKRD45 cg15883716 promoter methylation Mean: 0.793
  APC cg16970232 promoter methylation Mean: 0.269
  BLOC1S2 cg26610808 promoter methylation Mean: 0.526
  BTBD5 cg00660989 promoter methylation Mean: 0.214
  BTNL8 cg24024214 promoter methylation Mean: 0.781
  C1QL1 cg13818573 promoter methylation Mean: 0.255
  C1orf188 cg15731815 promoter methylation Mean: 0.321
  C10orf107 cg16063112 promoter methylation Mean: 0.230
  C14orf173 cg24404909 promoter methylation Mean: 0.248
  C16orf60 cg17858663 promoter methylation Mean: 0.177
  C19orf4 cg07379574 promoter methylation Mean: 0.733
  C19orf22 cg18022193 promoter methylation Mean: 0.180
  CAMK1G cg27337148 promoter methylation Mean: 0.715
  CD58 cg21039631 promoter methylation Mean: 0.325
  CDKN2B cg04675937 promoter methylation Mean: 0.167
  CDKN2B cg08390209 promoter methylation Mean: 0.150
  CDX1 cg15452204 promoter methylation Mean: 0.424
  CEACAM4 cg10237469 promoter methylation Mean: 0.430
  CEACAM7 cg19623751 promoter methylation Mean: 0.616
  CGI-38 cg13067215 promoter methylation Mean: 0.274
  CHD5 cg00282347 promoter methylation Mean: 0.682
  CHMP2A cg14042128 promoter methylation Mean: 0.354
  COL11A1 cg12884406 promoter methylation Mean: 0.331
  COPS7B cg05422352 promoter methylation Mean: 0.338
  CRSP7 cg24459023 promoter methylation Mean: 0.268
  CSPG3 cg06952310 promoter methylation Mean: 0.350
  CSTF2T cg06712026 promoter methylation Mean: 0.277
  CTAGE1 cg02847216 promoter methylation Mean: 0.727
  CUL3 cg09509863 promoter methylation Mean: 0.309
  CYP4F12 cg25813714 promoter methylation Mean: 0.721
  DCTD cg14892066 promoter methylation Mean: 0.171
  DDEF2 cg22190705 promoter methylation Mean: 0.187
  DEFB118 cg03014957 promoter methylation Mean: 0.548
  DNASE2 cg07955356 promoter methylation Mean: 0.207
  DPH1 cg11516377 promoter methylation Mean: 0.319
  DYRK1B cg18851831 promoter methylation Mean: 0.820
  EIF2B3 cg16604218 promoter methylation Mean: 0.360
  ELSPBP1 cg19404979 promoter methylation Mean: 0.406
  ENOSF1 cg16112050 promoter methylation Mean: 0.724
  EPN3 cg24006361 promoter methylation Mean: 0.739
  EREG cg19308222 promoter methylation Mean: 0.252
  FAM111B cg13864937 promoter methylation Mean: 0.366
  FLJ10726 cg14145762 promoter methylation Mean: 0.292
  FLJ11200 cg09001953 promoter methylation Mean: 0.335
  FLJ23514 cg16404106 promoter methylation Mean: 0.436
  FLRT3 cg23127998 promoter methylation Mean: 0.249
  FLT3LG cg01667384 promoter methylation Mean: 0.179
  FXYD7 cg22392666 promoter methylation Mean: 0.720
  G10 cg02798801 promoter methylation Mean: 0.349
  GABRB2 cg16509658 promoter methylation Mean: 0.176
  GALNT4 cg16606638 promoter methylation Mean: 0.245
  GAS8 cg03634997 promoter methylation Mean: 0.814
  GBX2 cg23095584 promoter methylation Mean: 0.268
  GNAS cg27661264 promoter methylation Mean: 0.334
  GRB10 cg26163537 promoter methylation Mean: 0.310
  GUP1 cg24938727 promoter methylation Mean: 0.441
  HACE1 cg23047681 promoter methylation Mean: 0.156
  HGF cg06745740 promoter methylation Mean: 0.404
  HNRNPG-T cg22062068 promoter methylation Mean: 0.650
  HOXB4 cg25145670 promoter methylation Mean: 0.311
  HRASLS cg08376864 promoter methylation Mean: 0.309
  HYPK cg00480356 promoter methylation Mean: 0.630
  ICAM1 cg08607082 promoter methylation Mean: 0.149
  IFI16 cg07463059 promoter methylation Mean: 0.386
  IFI44 cg07107453 promoter methylation Mean: 0.330
  IFNA2 cg13235447 promoter methylation Mean: 0.480
  IGF2AS cg20792294 promoter methylation Mean: 0.211
  IGFBP5 cg19008649 promoter methylation Mean: 0.264
  IGSF9 cg19111262 promoter methylation Mean: 0.576
  IHH cg17178336 promoter methylation Mean: 0.504
  IL2RG cg01361446 promoter methylation Mean: 0.834
  IL18 cg11304234 promoter methylation Mean: 0.478
  INPP5B cg10784030 promoter methylation Mean: 0.251
  ITGB3BP cg18464559 promoter methylation Mean: 0.121
  KA21 cg23776012 promoter methylation Mean: 0.410
  KCNA3 cg03483626 promoter methylation Mean: 0.208
  KCNAB3 cg14918082 promoter methylation Mean: 0.534
  KCNB2 cg11754206 promoter methylation Mean: 0.377
  KCNK10 cg17671157 promoter methylation Mean: 0.820
  KLK7 cg19953406 promoter methylation Mean: 0.680
  LAMB1 cg10064162 promoter methylation Mean: 0.295
  LDHD cg24429836 promoter methylation Mean: 0.510
  LIG4 cg08216792 promoter methylation Mean: 0.266
  LYNX1 cg24046110 promoter methylation Mean: 0.288
  MC3R cg19226099 promoter methylation Mean: 0.784
  MGC26856 cg07684809 promoter methylation Mean: 0.260
  MLNR cg02620013 promoter methylation Mean: 0.418
  MPHOSPH6 cg16119274 promoter methylation Mean: 0.280
  MSX1 cg03199651 promoter methylation Mean: 0.204
  MYOD1 cg24322623 promoter methylation Mean: 0.650
  NCKIPSD cg04244987 promoter methylation Mean: 0.242
  NDP cg11614809 promoter methylation Mean: 0.579
  NEFH cg16042149 promoter methylation Mean: 0.776
  NEIL2 cg14329976 promoter methylation Mean: 0.226
  NME5 cg13707560 promoter methylation Mean: 0.911
  NME5 cg25507001 promoter methylation Mean: 0.671
  NOC3L cg07270175 promoter methylation Mean: 0.464
  NOX4 cg17063929 promoter methylation Mean: 0.575
  NPAS1 cg09628601 promoter methylation Mean: 0.303
  NRXN1 cg10917619 promoter methylation Mean: 0.594
  OR1N1 cg14598387 promoter methylation Mean: 0.339
  OR10J1 cg15700197 promoter methylation Mean: 0.444
  PACS1 cg01663295 promoter methylation Mean: 0.329
  PCDHB13 cg14592099 promoter methylation Mean: 0.423
  PCDHB13 cg24435562 promoter methylation Mean: 0.273
  PCDHGA12 cg11647681 promoter methylation Mean: 0.623
  PCGF5 cg17001035 promoter methylation Mean: 0.664
  PEPD cg06546607 promoter methylation Mean: 0.229
  PEX5L cg02430692 promoter methylation Mean: 0.322
  PI3 cg02442161 promoter methylation Mean: 0.625
  PIGL cg05310071 promoter methylation Mean: 0.231
  POU3F3 cg20291049 promoter methylation Mean: 0.268
  POU4F2 cg24199834 promoter methylation Mean: 0.231
  PTCH2 cg15329642 promoter methylation Mean: 0.576
  PTPN5 cg17233601 promoter methylation Mean: 0.498
  RASGEF1A cg07871503 promoter methylation Mean: 0.574
  RBPSUHL cg21835643 promoter methylation Mean: 0.665
  REM1 cg12153542 promoter methylation Mean: 0.456
  REM1 cg26299767 promoter methylation Mean: 0.440
  RLN3R1 cg12238343 promoter methylation Mean: 0.451
  RPL39L cg07441272 promoter methylation Mean: 0.505
  RRM2B cg07125123 promoter methylation Mean: 0.288
  RYR1 cg05471297 promoter methylation Mean: 0.272
  S100A12 cg02813121 promoter methylation Mean: 0.719
  SCUBE2 cg01081263 promoter methylation Mean: 0.505
  SCUBE2 cg19237879 promoter methylation Mean: 0.493
  SEMA3E cg08274234 promoter methylation Mean: 0.207
  SEMA6C cg01958916 promoter methylation Mean: 0.255
  SEPN1 cg21187265 promoter methylation Mean: 0.381
